Results: US5801035A, “L-amino acid oxidase” (Novo Nordisk A/S, priority 1993, dated 1998)

Test system: L-amino acid oxidase
Assay: Substrate specificity: specific activity and Km (Lineweaver-Burk) with various L-amino acids, H2O2 detected with ABTS and CiP
Assay type: biochemical, Trichoderma harzianum
Conditions: phosphate buffer pH 8.5, room temperature; for Km: Lineweaver-Burk plots; for Specific Activity: 20 minutes
Method: The specific activity of the purified L-amino acid oxidase was 16 U/mg determined in a 50 mM phosphate buffer at pH 8.5, 20° C. with 1 mM L-arginine as substrate. One unit of enzyme will form 1 μmole of hydrogen peroxide per minute. The amount of protein is quantified assuming that a solution of the L-amino acid oxidase having an optical density of 1 determined at 280 nm contains 1 mg of protein/ml. The L-amino acid oxidase yield was approx. 50 mg of pure protein per litre of culture medium.
In the following characterization experiments, detection of H2 O2 was carried out using a Coprinus cinereus peroxidase (CiP), obtained according to WO 92/16634, at a level of 4.5 PODU/ml, and 0.4 mM ABTS in phosphate buffer at pH 7.0. The hydrogen peroxide concentrations were determined relative to a freshly prepared hydrogen peroxide standard solution.
The activity of the L-amino acid oxidase was determined with various L-amino acids as substrates. The L-amino acid oxidase was incubated with substrate in a phosphate buffer at pH 8.5 and room temperature for 20 minutes. Generated hydrogen peroxide was detected using ABTS and CiP as described above. The specific activity was determined as described in Example 2 above.
Km values for the various substrates were determined by plotting values of 1/v versus 1/s (Lineweaver-Burk plots).

SMILES | Km | Specific Activity (Substrate Conc. 1 (m/M)) | Specific Activity (Substrate Conc. 10 (m/M)) | Specific Activity (Substrate Conc. 80 (m/M))
N=C(N)NCCC[C@H](N)C(=O)O [L-arginine] | 1.2 mM | 16 U/mg | 30 U/mg | 
NC(=O)C[C@H](N)C(=O)O [L-asparagine] | 20 mM |  |  | 7 U/mg
CC(C)C[C@H](N)C(=O)O [L-leucine] | 40 mM |  |  | 16 U/mg
NCCCC[C@H](N)C(=O)O [L-lysine] | 0.2 mM | 7 U/mg |  | 
CSCC[C@H](N)C(=O)O [L-methionine] | 15 mM |  |  | 8 U/mg
N[C@@H](Cc1ccccc1)C(=O)O [L-phenylalanine] | 25 mM |  |  | 25 U/mg
